How the values were obtained:
[1] = molecular target: T1, human aspartate/glutamate carrier 2 (AGC2, SLC25A13) (Homo sapiens, UniProt Q9UJS0); test: nanoDSF thermal shift; assay type: binding; details: 10 mM aspartate; 20 mM HEPES pH 7.0, 50 mM NaCl, cardiolipin/LMNG; apo Tm 55.4 °C
T1 construct: N-terminal His8 tag with TEV site, tag removed by TEV cleavage; codon-optimized, expressed in Saccharomyces cerevisiae W303.1B mitochondria; purified in LMNG/cardiolipin; 74 kDa protomer, homodimer via N-terminal domains
T1 sequence (Q9UJS0 2-675): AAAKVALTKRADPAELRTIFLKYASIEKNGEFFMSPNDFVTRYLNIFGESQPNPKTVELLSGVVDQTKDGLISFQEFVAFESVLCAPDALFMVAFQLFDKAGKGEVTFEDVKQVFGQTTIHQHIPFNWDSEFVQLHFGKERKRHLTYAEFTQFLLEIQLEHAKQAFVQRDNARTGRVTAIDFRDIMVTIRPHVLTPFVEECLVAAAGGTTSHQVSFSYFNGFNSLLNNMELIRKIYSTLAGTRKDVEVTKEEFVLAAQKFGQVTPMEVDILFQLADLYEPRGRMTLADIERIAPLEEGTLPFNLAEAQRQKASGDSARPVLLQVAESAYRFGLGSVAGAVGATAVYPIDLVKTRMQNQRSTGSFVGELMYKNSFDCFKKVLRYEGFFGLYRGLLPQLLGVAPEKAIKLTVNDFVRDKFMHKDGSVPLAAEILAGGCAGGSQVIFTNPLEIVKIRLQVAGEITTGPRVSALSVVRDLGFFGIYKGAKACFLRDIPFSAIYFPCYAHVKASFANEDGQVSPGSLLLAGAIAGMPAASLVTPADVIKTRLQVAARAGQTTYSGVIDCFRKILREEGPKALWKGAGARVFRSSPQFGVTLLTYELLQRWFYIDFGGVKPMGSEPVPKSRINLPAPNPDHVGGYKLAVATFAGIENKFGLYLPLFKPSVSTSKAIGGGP

[2] = molecular target: T1, human aspartate/glutamate carrier 2 (AGC2, SLC25A13); test: […]-aspartate uptake into proteoliposomes, homo-exchange, Michaelis-Menten fit; assay type: biochemical; details: labelled compound; internal aspartate 0.10-1.00 mM, external 1.5-25 μM; 20 mM HEPES pH 7.4, 50 mM NaCl, 1 mM CaCl2
[3] = molecular target: human citrate carrier (CIC, SLC25A1) (Homo sapiens, UniProt P53007); details: labelled compound; internal citrate 0.10-1.00 mM, external 1.0-25 μM; 20 mM HEPES pH 7.0, 50 mM NaCl, 5 mM MgCl2
[4] = molecular target: T2, human oxoglutarate carrier (OGC, SLC25A11) (Homo sapiens, UniProt Q02978); test: […]-malate uptake into proteoliposomes, homo-exchange, Michaelis-Menten fit; assay type: biochemical; details: labelled compound; internal malate 0.10-1.00 mM, external 0.5-20 μM; 20 mM HEPES pH 7.0, 50 mM NaCl, 5 mM MgCl2
T2 construct: residues 2-13 deleted; N-terminal His8 tag with factor Xa site, tag removed by on-column Xa cleavage; codon-optimized, expressed in Saccharomyces cerevisiae W303.1B mitochondria; purified in LMNG/cardiolipin; 33,477 Da; monomer
T2 sequence (Q02978 14-314): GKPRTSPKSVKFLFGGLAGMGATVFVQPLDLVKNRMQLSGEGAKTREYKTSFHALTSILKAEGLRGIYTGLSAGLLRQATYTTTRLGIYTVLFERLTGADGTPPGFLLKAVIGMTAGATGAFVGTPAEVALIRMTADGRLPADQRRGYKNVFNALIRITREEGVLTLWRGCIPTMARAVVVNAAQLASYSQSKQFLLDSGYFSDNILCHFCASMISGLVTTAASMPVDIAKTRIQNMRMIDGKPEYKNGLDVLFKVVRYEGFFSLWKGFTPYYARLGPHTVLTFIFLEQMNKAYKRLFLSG

[5] = molecular target: T3, human dicarboxylate carrier (DIC, SLC25A10) (Homo sapiens, UniProt Q9UBX3, INS1GKP); test: nanoDSF thermal shift; assay type: binding; details: 10 mM malate; 20 mM HEPES pH 7.0, 50 mM NaCl, cardiolipin/LMNG; apo Tm 54.1 °C
T3 construct: GKP added at positions 2-4; N-terminal His8 tag with factor Xa site, tag removed by on-column Xa cleavage; codon-optimized, expressed in Saccharomyces cerevisiae BJ2168 mitochondria; purified in LMNG/cardiolipin; 31,923 Da; monomer
T3 sequence (Q9UBX3 with tags, fused parts or gaps INS1GKP): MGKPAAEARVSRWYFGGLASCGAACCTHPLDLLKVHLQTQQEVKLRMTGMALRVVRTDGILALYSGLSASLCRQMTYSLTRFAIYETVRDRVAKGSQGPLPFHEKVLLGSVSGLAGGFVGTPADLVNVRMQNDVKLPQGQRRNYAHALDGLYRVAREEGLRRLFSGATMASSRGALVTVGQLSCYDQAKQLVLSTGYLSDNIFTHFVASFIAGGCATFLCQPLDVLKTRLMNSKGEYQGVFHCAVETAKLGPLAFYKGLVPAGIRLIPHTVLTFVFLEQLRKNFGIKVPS

[6] = molecular target: T2, human oxoglutarate carrier (OGC, SLC25A11); test: nanoDSF thermal shift; assay type: binding; details: 10 mM malate; 20 mM HEPES pH 7.0, 50 mM NaCl, cardiolipin/LMNG; apo Tm 51.0 °C
[7] = molecular target: the molecule itself; test: SEC; 150 μL of purified carrier on Superdex 200 Increase 10/300 in buffer B (20 mM HEPES pH 7.0, 50 mM NaCl, 0.1 mg/mL tetraoleoyl cardiolipin/0.1% (w/v) lauryl maltose neopentyl glycol); sized against ferritin, aldolase, conalbumin and ovalbumin; total weight corrected for bound lipid/detergent (≈135 kDa)

Sequence of human citrate carrier (CIC, SLC25A1) (P53007 13-311): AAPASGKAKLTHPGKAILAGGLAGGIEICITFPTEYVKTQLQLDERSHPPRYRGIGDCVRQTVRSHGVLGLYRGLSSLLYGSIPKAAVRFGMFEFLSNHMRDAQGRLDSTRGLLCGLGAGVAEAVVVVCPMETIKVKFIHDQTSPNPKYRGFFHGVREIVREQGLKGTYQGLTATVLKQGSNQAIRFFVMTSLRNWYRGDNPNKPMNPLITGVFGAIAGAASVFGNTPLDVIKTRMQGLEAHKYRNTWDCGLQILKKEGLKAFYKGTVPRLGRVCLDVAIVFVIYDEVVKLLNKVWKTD

N[C@@H](CC(=O)O)C(=O)O [aspartate]
thermal shift [1]: 1.6 °C
apparent Km [2]: chemical gradients for (C) OGC, (F) CIC, (I) DIC, and (L) AGC2

O=C(O)CC(O)(CC(=O)O)C(=O)O [citrate]
apparent Km [3]: Km plotted against Vmax for the various chemical gradients for (C) OGC, (F) CIC

O=C(O)C[C@H](O)C(=O)O [malate]
apparent Km [4]: Km plotted against Vmax for the various chemical gradients for (C) OGC
thermal shift [5]: 2.5 °C
thermal shift [6]: 5.6 °C

B1: human mitochondrial aspartate/glutamate carrier 2 (natural protein, UniProt Q9UJS0 1-675, looked up)
chain: MAAAKVALTKRADPAELRTIFLKYASIEKNGEFFMSPNDFVTRYLNIFGESQPNPKTVELLSGVVDQTKDGLISFQEFVAFESVLCAPDALFMVAFQLFDKAGKGEVTFEDVKQVFGQTTIHQHIPFNWDSEFVQLHFGKERKRHLTYAEFTQFLLEIQLEHAKQAFVQRDNARTGRVTAIDFRDIMVTIRPHVLTPFVEECLVAAAGGTTSHQVSFSYFNGFNSLLNNMELIRKIYSTLAGTRKDVEVTKEEFVLAAQKFGQVTPMEVDILFQLADLYEPRGRMTLADIERIAPLEEGTLPFNLAEAQRQKASGDSARPVLLQVAESAYRFGLGSVAGAVGATAVYPIDLVKTRMQNQRSTGSFVGELMYKNSFDCFKKVLRYEGFFGLYRGLLPQLLGVAPEKAIKLTVNDFVRDKFMHKDGSVPLAAEILAGGCAGGSQVIFTNPLEIVKIRLQVAGEITTGPRVSALSVVRDLGFFGIYKGAKACFLRDIPFSAIYFPCYAHVKASFANEDGQVSPGSLLLAGAIAGMPAASLVTPADVIKTRLQVAARAGQTTYSGVIDCFRKILREEGPKALWKGAGARVFRSSPQFGVTLLTYELLQRWFYIDFGGVKPMGSEPVPKSRINLPAPNPDHVGGYKLAVATFAGIENKFGLYLPLFKPSVSTSKAIGGGP
notes: human aspartate/glutamate carrier 2 (AGC2, SLC25A13), UniProt Q9UJS0; TEV site between the His8 tag and the protein; protomers printed as 74 kDa each; also called AGC2; SLC25A13; not shown: His8, N-terminal, cleaved
stoichiometry N [7]: 2

Reference: paper PMC11329753, “Human mitochondrial carriers of the SLC25 family function as monomers exchanging substrates with a ping-pong kinetic mechanism” (The EMBO Journal, 2024)
